Measured values published in ChEMBL document CHEMBL3046687, “New thiazolidine-2,4-diones as antimicrobial and cytotoxic agent” (Med Chem Res, 2012).
≈ marks a conversion by molar mass, not a printed value.

What was measured:
[1] = test system: Pseudomonas aeruginosa; experiment: Antimicrobial activity against Pseudomonas aeruginosa ATCC 25619 after 24 hr by two-fold serial dilution method; assay type: functional; conditions: ATCC 25619, 24 h
[2] = test system: Enterococcus faecalis; experiment: Antimicrobial activity against Enterococcus faecalis ATCC 35550 after 24 hr by two-fold serial dilution method; assay type: functional; conditions: ATCC 35550, 24 h
[3] = test system: Cryptococcus neoformans; experiment: Antimicrobial activity against Cryptococcus neoformans clinical isolate after 48 hr by two-fold serial dilution method; assay type: functional
[4] = test system: MCF7; experiment: Cytotoxicity against Homo sapiens (human) MCF7 cells after 24 hr by MTT assay; assay type: functional, cell-based; conditions: MCF7, 24 h
[5] = test system: A549; experiment: Cytotoxicity against Homo sapiens (human) A549 cells after 24 hr by MTT assay; assay type: functional, cell-based; conditions: A549, 24 h
[6] = test system: Aspergillus niger; experiment: Antimicrobial activity against Aspergillus niger ATCC 6275 after 48 hr by two-foldserial dilution method; assay type: functional; conditions: ATCC 6275, 48 h
[7] = test system: Staphylococcus aureus; experiment: Antimicrobial activity against Staphylococcus aureus ATCC 25923 after 24 hr by two fold serial dilution method; assay type: functional; conditions: ATCC 25923, 24 h
[8] = test system: Candida albicans; experiment: Antimicrobial activity against Candida albicans ATCC 2091 after 48 hr by two-fold serial dilution method; assay type: functional; conditions: ATCC 2091, 48 h
[9] = test system: HT-29; experiment: Cytotoxicity against Homo sapiens (human) HT-29 cells after 24 hr by MTT assay; assay type: functional, cell-based; conditions: HT-29, 24 h
[10] = test system: Escherichia coli; experiment: Antimicrobial activity against Escherichia coli ATCC 35218 after 24 hr by two-fold serial dilution method; assay type: functional; conditions: ATCC 35218, 24 h
[11] = test system: Aspergillus flavus; experiment: Antimicrobial activity against Aspergillus flavus NCIM 524 after 48 hr by two-fold serial dilution method; assay type: functional; conditions: NCIM 524, 48 h
[12] = test system: HeLa; experiment: Cytotoxicity against Homo sapiens (human) HeLa cells after 24 hr by MTT assay; assay type: functional, cell-based

MIC [1] [µg/mL] | MIC [2] [µg/mL] | MIC [3] [µg/mL] | MIC [6] [µg/mL] | MIC [7] [µg/mL] | MIC [8] [µg/mL] | MIC [10] [µg/mL] | MIC [11] [µg/mL] | SMILES | IC50 [4] [µM] | IC50 [5] [µM] | IC50 [9] [µM] | IC50 [12] [µM]
16 (≈ 47 µM) | 64 (≈ 188 µM) | 16 (≈ 47 µM) | 32 (≈ 94 µM) | 64 (≈ 188 µM) | 32 (≈ 94 µM) | 16 (≈ 47 µM) | 16 (≈ 47 µM) | O=C(O)c1ccc(CN2C(=O)S/C(=C\c3ccccn3)C2=O)cc1 | 90 | 80 | 78 | 62
16 (≈ 48.6 µM) | 64 (≈ 194 µM) | 64 (≈ 194 µM) | 32 (≈ 97.2 µM) | 32 (≈ 97.2 µM) | 64 (≈ 194 µM) | 16 (≈ 48.6 µM) | 32 (≈ 97.2 µM) | O=C(O)c1ccc(CN2C(=O)S/C(=C\c3ccco3)C2=O)cc1 | 90 | 76 | 94 | 80
8 (≈ 21.7 µM) | 16 (≈ 43.3 µM) | 16 (≈ 43.3 µM) | 32 (≈ 86.6 µM) | 16 (≈ 43.3 µM) | 32 (≈ 86.6 µM) | 8 (≈ 21.7 µM) | 32 (≈ 86.6 µM) | COc1cccc(/C=C2\SC(=O)N(Cc3ccc(C(=O)O)cc3)C2=O)c1 | 58 | 55 | 48 | 48
32 (≈ 86.6 µM) | 16 (≈ 43.3 µM) | 16 (≈ 43.3 µM) | 32 (≈ 86.6 µM) | 16 (≈ 43.3 µM) | 16 (≈ 43.3 µM) | 32 (≈ 86.6 µM) | 32 (≈ 86.6 µM) | COc1ccc(/C=C2\SC(=O)N(Cc3ccc(C(=O)O)cc3)C2=O)cc1 | 48 | 44 | 44 | 40
16 (≈ 47 µM) | 16 (≈ 47 µM) | 16 (≈ 47 µM) | 32 (≈ 94 µM) | 32 (≈ 94 µM) | 16 (≈ 47 µM) | 16 (≈ 47 µM) | 32 (≈ 94 µM) | O=C(O)c1ccc(CN2C(=O)S/C(=C\c3ccncc3)C2=O)cc1 | 84 | 72 | 80 | 60
32 (≈ 94 µM) | 128 (≈ 376 µM) | 32 (≈ 94 µM) | 16 (≈ 47 µM) | 128 (≈ 376 µM) | 32 (≈ 94 µM) | 32 (≈ 94 µM) | 16 (≈ 47 µM) | O=C(O)c1ccc(CN2C(=O)S/C(=C\c3cccnc3)C2=O)cc1 | 100 | 75 | 90 | 88
8 (≈ 23.6 µM) | 64 (≈ 189 µM) | 16 (≈ 47.1 µM) | 16 (≈ 47.1 µM) | 128 (≈ 377 µM) | 16 (≈ 47.1 µM) | 4 (≈ 11.8 µM) | 32 (≈ 94.3 µM) | O=C(O)c1ccc(CN2C(=O)S/C(=C\c3ccccc3)C2=O)cc1 | 100 | 90 | 88 | 72
4 (≈ 11.2 µM) | 4 (≈ 11.2 µM) | 4 (≈ 11.2 µM) | 4 (≈ 11.2 µM) | 2 (≈ 5.6 µM) | 2 (≈ 5.6 µM) | 4 (≈ 11.2 µM) | 4 (≈ 11.2 µM) | O=C(O)c1ccc(CN2C(=O)S/C(=C\c3ccc(F)cc3)C2=O)cc1 | 38 | 36 | 32 | 34
4 (≈ 9.56 µM) | 128 (≈ 306 µM) | 16 (≈ 38.3 µM) | 32 (≈ 76.5 µM) | 128 (≈ 306 µM) | 16 (≈ 38.3 µM) | 4 (≈ 9.56 µM) | 16 (≈ 38.3 µM) | O=C(O)c1ccc(CN2C(=O)S/C(=C\c3ccc(Br)cc3)C2=O)cc1 | 48 | 42 | 30 | 38
16 (≈ 46.7 µM) | 64 (≈ 187 µM) | 32 (≈ 93.5 µM) | 16 (≈ 46.7 µM) | 64 (≈ 187 µM) | 32 (≈ 93.5 µM) | 16 (≈ 46.7 µM) | 16 (≈ 46.7 µM) | Cn1cccc1/C=C1\SC(=O)N(Cc2ccc(C(=O)O)cc2)C1=O | 70 | 80 | 88 | 90
16 (≈ 45.3 µM) | 32 (≈ 90.5 µM) | 64 (≈ 181 µM) | 64 (≈ 181 µM) | 32 (≈ 90.5 µM) | 64 (≈ 181 µM) | 16 (≈ 45.3 µM) | 32 (≈ 90.5 µM) | Cc1ccc(/C=C2\SC(=O)N(Cc3ccc(C(=O)O)cc3)C2=O)cc1 | 100 | 78 | 72 | 68
8 (≈ 18.6 µM) | 8 (≈ 18.6 µM) | 4 (≈ 9.31 µM) | 4 (≈ 9.31 µM) | 8 (≈ 18.6 µM) | 2 (≈ 4.66 µM) | 8 (≈ 18.6 µM) | 4 (≈ 9.31 µM) | COc1cc(/C=C2\SC(=O)N(Cc3ccc(C(=O)O)cc3)C2=O)cc(OC)c1OC | 30 | 36 | 32 | 30
16 (≈ 46.3 µM) | 32 (≈ 92.6 µM) | 32 (≈ 92.6 µM) | 8 (≈ 23.2 µM) | 16 (≈ 46.3 µM) | 32 (≈ 92.6 µM) | 8 (≈ 23.2 µM) | 8 (≈ 23.2 µM) | O=C(O)c1ccc(CN2C(=O)S/C(=C\c3cccs3)C2=O)cc1 | 76 | 80 | 88 | 76

SMILES | MIC [1] [µg/mL] | MIC [2] [µg/mL] | MIC [3] [µg/mL] | MIC [6] [µg/mL] | MIC [7] [µg/mL] | MIC [8] [µg/mL] | MIC [10] [µg/mL] | MIC [11] [µg/mL] | IC50 [4] [µM] | IC50 [5] [µM] | IC50 [9] [µM] | IC50 [12] [µM]
CC(=O)N1CCN(c2ccc(OCC3COC(Cn4ccnc4)(c4ccc(Cl)cc4Cl)O3)cc2)CC1 (configuration not stated) [KETOCONAZOLE] | – | – | 2 (≈ 3.76 µM) | 2 (≈ 3.76 µM) | – | 2 (≈ 3.76 µM) | – | 1 (≈ 1.88 µM) | – | – | – | –
CC1(C)S[C@@H]2[C@H](NC(=O)[C@H](N)c3ccccc3)C(=O)N2[C@H]1C(=O)O [AMPICILLIN] | – | 2 (≈ 5.72 µM) | – | – | 2 (≈ 5.72 µM) | – | – | – | – | – | – | –
